Experimental data as given in patent US9862746B2, “Compositions and methods relating to hindering DOT1L recruitment by MLL-fusion proteins” (The Regents of the University of Michigan, priority 2013, dated 2018).
Where a SMILES comes first, the peptide text is derived from it.

Key:
ENL [1] = target: T1, ENL (Homo sapiens, UniProt Q03111); test: Solution competitive SPR assay of peptides, ENL-DOT1L interaction; type: binding; conditions: read-out: IC50 against ENL (block PPI DOT1L/ENL)
T1 construct: against AF9(497-568) and ENL (489-559) proteins running different tested concentrations over CM5 chip; MBP (pMSCG9-LIC vector); made in house; host or cells: Escherichia coli BL21 (DE3)
T1 sequence (Q03111 489-559): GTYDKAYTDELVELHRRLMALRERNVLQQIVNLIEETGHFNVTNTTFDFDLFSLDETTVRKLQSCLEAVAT
Description: (§1) Solution competitive SPR based assay was performed to determine the IC50 values of DOT1L peptides. […] Response units (RU) were measured at 15 seconds in the dissociation phase and the specific binding was calculated by subtracting the control surface (Fcl) signal from the surfaces with immobilized Mocr-DOT1L. IC50 values were determined by non-linear least squares analysis using Graph Pad Prism 5.0 software.

GB1-AF9 = target: T2, GB1-AF9 (Homo sapiens, UniProt P42568); test: FP competitive binding, displacement of Flu-DOT1L from GB1-AF9; conditions: read-out: IC50, competition with DOT1L 10-mer fluorescein-labeled peptide for AF9
T2 construct: the recombinant GB1-AF9 protein (residues 497-568); made in house; host or cells: Escherichia coli BL21 (DE3)
T2 sequence (P42568 497-568): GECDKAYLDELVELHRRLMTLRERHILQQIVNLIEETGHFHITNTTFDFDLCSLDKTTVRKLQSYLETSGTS
Description: AF4 (749-775) protein and several peptides (AF4 14 mer, un-labeled and biotin-labeled DOT1L 10 mer peptide) were tested for their ability to displace the Flu-DOT1L from GB1-AF9 protein. The dose-dependent binding experiments were carried out in 96-well plates with serial dilutions of tested protein or peptides, GB1-AF9 protein (500 nM) and Flu-DOT1L (10 nM) in the same assay buffer and final volume of 125 μL. The polarization values were measured after 3 h incubation. Negative controls containing GB1-AF9 protein and probe (equivalent to 0% inhibition), and positive controls containing only free Flu-DOT1L probe (equivalent to 100% inhibition), were included on each assay plate. IC50 values were determined by nonlinear regression fitting of the competition curves (GraphPad Prism 5.0).

AF9 [2] = target: T3, AF9 (Homo sapiens, UniProt P42568); test: Solution competitive SPR assay of peptides, AF9-DOT1L interaction; type: binding; design: against AF9(497-568) and ENL (489-559) proteins running different tested concentrations over CM5 chip; GB1 (pGB1-LIC vector); made in house; host or cells: Escherichia coli BL21 (DE3); conditions: read-out: IC50 against AF9 (block PPI DOT1L/AF9)
T3 sequence (P42568 497-568): T2 sequence (P42568 497-568)
Description: as §1

AF9 [3] = target: T4, AF9 (Homo sapiens, UniProt P42568); test: Saturation Transfer Difference (STD) NMR; type: binding
T4 sequence (P42568 1-568): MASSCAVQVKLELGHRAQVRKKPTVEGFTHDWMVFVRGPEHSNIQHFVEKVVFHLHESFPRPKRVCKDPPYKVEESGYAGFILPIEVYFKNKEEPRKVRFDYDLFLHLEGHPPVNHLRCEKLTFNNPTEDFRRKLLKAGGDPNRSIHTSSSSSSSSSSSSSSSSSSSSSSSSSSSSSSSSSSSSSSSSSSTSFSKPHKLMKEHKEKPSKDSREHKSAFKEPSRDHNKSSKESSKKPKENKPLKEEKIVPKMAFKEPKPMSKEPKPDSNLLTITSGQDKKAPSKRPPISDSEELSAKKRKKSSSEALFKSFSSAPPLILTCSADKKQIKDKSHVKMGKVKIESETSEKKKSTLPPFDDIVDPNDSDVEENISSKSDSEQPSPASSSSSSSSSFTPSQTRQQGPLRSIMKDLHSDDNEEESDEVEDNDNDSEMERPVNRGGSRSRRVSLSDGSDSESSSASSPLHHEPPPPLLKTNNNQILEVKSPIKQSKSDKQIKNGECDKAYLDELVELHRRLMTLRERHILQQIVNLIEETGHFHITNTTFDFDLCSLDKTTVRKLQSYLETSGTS
Description: C) Globally fitted concentration series of 38 (100, 50, 25, 12.5 and 6.25 μM) binding to immobilized AF9 using OctetRed System (see Example 12).
To provide further validation of the hit selection in addition to the biochemical assays Saturation Transfer Difference (STD), NMR spectroscopy was used. NMR spectroscopy has been successfully utilized to detect and characterize the direct binding of small-molecule compounds to large biomolecules. This technique is also allowing characterization of the binding interactions and maps the ligand-protein contacts in the bound state, delineating which chemical moieties of the ligand molecule are key for molecular recognition by the protein (group epitope mapping, FIG. 20A). […] The direct binding of 38 was also confirmed with ThermoFluor biophysical binding assay. ThermoFluor exploits a well-known biophysical phenomenon where small changes in the intrinsic melting temperature of proteins in the presence of ligands are related to the equilibrium-binding constant. Compounds that interact with the native form of the protein will shift the equilibrium to the left, increasing the Tm, the temperature at which half the protein is unfolded. In the presence of compound 38, the Tm of MBP-AF9 protein increases in a dose-dependent manner, giving ΔTm of 1.2 degree in […] (FIG. 20B).

ENL [4] = target: T1, ENL; test: SPR competitive binding assay of small molecules, ENL; conditions: SPR competitive based assay; read-out: ENL IC50 ± SD
From the text: (§2) To further validate the binding of the confirmed compounds and identify potential promiscuous inhibitors, several secondary assays have been developed to support hit confirmation and the hit-to-probe optimization process. In order to determine that the compounds bind effectively to the target and disrupt protein-protein interaction, a SPR competitive binding assay was used. This assay uses a platform that differs from the FP-based assay where DOT1L recombinant protein (residues […]) is immobilized on a CM5 chip, allowing for testing of the inhibitors for their ability to disrupt AF9-DOT1L protein-protein interactions.
This class of compounds was also tested for their binding against ENL protein, which is highly homologous with AF9.

[5] = Microsomal stability in mouse liver microsome; type: in vitro ADME; conditions: with NADPH
Description: For optimization of this class of inhibitors besides testing their binding affinity, the physico-chemical properties and microsomal stability will be tested in order to obtain improvement at multiple levels, as necessary for fully optimized compounds. To obtain initial information about the stability of this chemical class of compounds, compounds 42 and 48 have been tested in microsomal stability using mouse liver microsome. […] If their structure is analyzed, the major difference between these two compounds is the R2 substituent, furan vs. thiophen.

AF9 [6] = target: T3, AF9; test: SPR competitive binding assay of small molecules, AF9-DOT1L; design: against AF9(497-568) and ENL (489-559) proteins running different tested concentrations over CM5 chip; GB1 (pGB1-LIC vector); made in house; host or cells: Escherichia coli BL21 (DE3); conditions: SPR competitive based assay; read-out: AF9 IC50 ± SD
From the text: Several secondary assays have already been developed to support hit confirmation and the hit-to-probe optimization process. The established and optimized SPR-based competitive assay utilizing DOT1L protein (826-1095) immobilized on the CM5 sensor chip was used as a secondary counter screen assay to validate binding of compounds to AF9. […] Both assays gave similar IC50 values.
as §2

MBP-ENL (489-559) = target: T5, MBP-ENL (489-559) (Homo sapiens, UniProt Q03111); test: Isothermal titration calorimetry with MBP-ENL; type: binding; conditions: ITC, MBP-tagged ENL, 1:1 stoichiometry; read-out: KD to ENL protein
T5 construct: MBP-ENL (489-559) was dialysed extensively; made in house; host or cells: Escherichia coli BL21 (DE3)
T5 sequence (Q03111 489-559): T1 sequence (Q03111 489-559)
Description: Isothermal titration calorimetry—ITC was carried out using a Nano-ITC Micro Calorimeter (TA Instruments) at 20° C. MBP-ENL (489-559) was dialysed extensively against 50 mM Na2HPO4, (pH 7.5) and 100 mM NaCl, and 80 μM was used for titration studies of DOT1L 16-mer and 10-mer peptides, and 110 μM for DOT1L 7-mer titration. Tested peptides dissolved in the same buffer at 400 μM (DOT1L 16-mer and 10-mer) or 500 μM (DOT1L 7-mer) were tested by injecting 2 μl aliquots into the protein sample, at time intervals of […], to ensure that the titration peak returned to the baseline. The ITC data were analyzed by NanoAnalyze software package using a one site-binding model.

H3K79 methylation = test: Global H3K79 methylation in MLL-AF9 transformed cells; type: cell-based, mouse; conditions: 6 days treatment of MLL-AF9 transformed cells
From the text: FIG. 23 presents cell growth curves of A) MLL-AF9 and B) Hoxa9/Meis1 transformed mouse cells and C) adult LSKs after treatment with 38. D) H3K79 methylation after 6 days treatment with 38 and EPZ004777 DOT1L inhibitor (see, e.g., Daigle, et al., Cancer Cell 20, 53-65 (2011)).
This example involves the assessment of cellular effects of compound 38. […] Compound 38 inhibited growth of MLL-AF9 cells in a dose-dependent manner (FIG. 23A), with cell growth inhibition starting after 4 days of treatment. […] The hypothesis predicts that compounds that can block the DOT1L recruitment, but not its catalytic activity, will not affect normal hematopoiesis, as well as the global level of H3K79 methylation. To test this hypothesis, the toxicity of compound 38 was tested on purified LSK (lin-sca-1+ckit+) progenitors from adult wild type mice (FIG. 23C).

DOT1L (826-1095) = target: T6, DOT1L (826-1095) (Homo sapiens, UniProt Q8TEK3); test: SPR binding of ENL fragments to immobilized Mocr-DOT1L (826-1095)
T6 construct: made in house; host or cells: Escherichia coli BL21 (DE3)
T6 sequence (Q8TEK3 826-1095): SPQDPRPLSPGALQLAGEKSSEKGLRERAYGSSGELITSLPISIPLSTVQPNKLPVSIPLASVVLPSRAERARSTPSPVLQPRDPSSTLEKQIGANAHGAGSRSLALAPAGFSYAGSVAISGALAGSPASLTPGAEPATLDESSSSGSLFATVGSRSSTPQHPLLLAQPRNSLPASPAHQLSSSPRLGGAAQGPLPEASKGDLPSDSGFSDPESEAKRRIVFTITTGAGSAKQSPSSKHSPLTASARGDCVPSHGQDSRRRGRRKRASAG
Description: FIG. 7 pertains to analyzing the C-terminal domain in ENL protein and its binding to DOT1L. A. Alignment of ENL and AF9 C-terminal domain. The predicted α-helices are marked with Helix 1 and Helix 2 and conserved residues are presented in grey. […] The kon, koff and Kd were calculated by simultaneous non-linear regression using 1:1 binding model and BIAevaluation 3.1 software. The experimental data are shown in black while the global fit analyses are shown in grey.
Surface Plasmon Resonance (SPR) binding studies—All SPR based experiments were performed on a BIAcore 2000 (BIAcore, GE Healthcare) instrument. Different tested DOT1L recombinant proteins were immobilized on a CM5 sensor chip by standard EDC/NHS coupling chemistry followed by ethanolamine deactivation of the surfaces. For immobilization of full length Flag-DOT1L protein, anti-Flag antibody (Sigma, Anti-FLAG M2) was immobilized on CM5 chip by the same amine coupling chemistry. HEK293 whole cells lysate with overexpressed Flag-DOT1L at 2.4 μg/l total protein concentration was injected over the Flag antibody surface, followed by injecting of AF9 and ENL in different concentrations. […] Binding parameters, kon, koff and Kd were calculated by simultaneous non-linear regression using BIAEvaluation software.

CC[C@H](C)[C@H](NC(=O)[C@H](CCCCN)NC(=O)[C@@H](NC(=O)[C@H](CCSC)NC(=O)[C@H](CC(C)C)NC(C)=O)C(C)C)C(=O)N[C@H](C(=O)N[C@@H](CC(C)C)C(=O)N[C@@H](CC(=O)O)C(=O)N[C@@H](CC(C)C)C(=O)N[C@@H](CC(C)C)C(=O)N[C@@H](CO)C(=O)N[C@@H](CCCNC(=N)N)C(=O)N[C@H](C(=O)N1CCC[C@H]1C(N)=O)[C@@H](C)CC)[C@@H](C)O [AF4 14 mer, reference compound] (Ac-LMVKITLDLLSRIP-NH2)
IC50 (ENL [1]): 0.43 µM | IC50 (GB1-AF9): 0.28 µM | IC50 (AF9 [2]): 0.2 µM

COc1cccc(Nc2nc(N3CCOCC3)c3c(n2)N(C)NC3)c1 [Compound 36]
STD effects (direct binding to AF9) (AF9 [3]): strong STD effects

CCCc1ccc(S(=O)(=O)N2c3ccccc3NC3=C(C(=O)CCC3)C2c2ccco2)cc1 (stereo not drawn) [Compound 42]
IC50 (ENL [4]): 58.1 ± 12 µM | half time in mouse liver microsome [5]: 2 min | IC50 (AF9 [6]): 47.1 ± 2.3 µM

CCc1ccc(S(=O)(=O)N2c3ccccc3NC3=C(C(=O)CCC3)C2c2cccs2)cc1 (stereo not drawn) [Compound 48]
IC50 (ENL [4]): 19.7 ± 4 µM | half time in mouse liver microsome [5]: > 60 min | IC50 (AF9 [6]): 24.8 ± 1.3 µM

CC[C@H](C)[C@H](NC(=O)[C@@H]1CCCN1C(=O)[C@H](CC(C)C)NC(C)=O)C(=O)N[C@@H](CO)C(=O)N[C@H](C(=O)N1CCC[C@H]1C(=O)N[C@@H](CC(C)C)C(N)=O)[C@@H](C)CC [DOT1L 7 mer, Ac-LPISIPL-NH2] (Ac-LPISIPL-NH2)
Kd (MBP-ENL (489-559)): 3.4 µM

CC(C)N(CCCNC(=O)Nc1ccc(C(C)(C)C)cc1)C[C@H]1O[C@@H](n2ccc3c(N)ncnc32)[C@H](O)[C@@H]1O [EPZ004777, reference compound]
global H3K79 methylation level (H3K79 methylation): decreased global level of H3K79 methylation

ENL H1: recombinant fragment of ENL protein corresponding to predicted helix 1 (GTYDKAYTDELVELHRRLMALRERNVLQQIVNLIEETGHFNVTNTTFDFDLFSLDE)
Kd (DOT1L (826-1095)): 2.8 µM

ENL H2: recombinant fragment of ENL protein corresponding to predicted helix 2 (EETGHFNVTNTTFDFDLFSLDETTVRKLQSCLEAVAT)
Kd (DOT1L (826-1095)): 14.6 µM

recombinant AF4 protein: AF4 recombinant protein (749-775 residues) (LSPLRDTPPPQSLMVKITLDLLSRIPQ)
IC50 (GB1-AF9): 0.56 µM
